Key:
[1] = target: T1, BAF3 FL KIT EX11DEL/T6701 (Homo sapiens, UniProt P10721, T670I, cells depend on it, form not given); assay: c-Kit assay: Ba/F3 KIT mutant viability (Cell Titer-Glo, 72 hours); assay type: cell-based; details: EX11DEL/T6701, viability after 72 hours
T1 construct: "BAF3 FL KIT EX11DEL/ T6701"
Description: (§1) KIT cDNAs were synthesized by GenScript and cloned into the pLVX-IRES-Puro vector (Clontech). Viral particles were produced by transfecting pLVX-IRES-puro vectors containing KIT mutant genes into HEK293 cells (Invitrogen) using the Trans-Lentiviral ORF Packaging Kit (Thermo Scientific). 48 hours post-transfection, virus-containing supernatants were harvested and incubated for another 48-72 hours with parental Ba/F3 cells (DSMZ) in the presence of 10 ng/mL […] (R&D Systems). Transduced Ba/F3 cells were then selected by IL-3 withdrawal and puromycin (0.5-1 μg/mL, Invitrogen).
(§2) Cell lines (i.e., EX11DEL, EX11DEL/D816H, EX11DEL/T670I, and EX11DEL/V654A) were plated into 384 well plates using RPMI 1640 supplemented with 10% FBS at densities that produced linear growth and incubated at 37° C. in 5% (v/v) CO2. Cells were treated with eight concentrations of compound over a 4-fold dilution (10 μM to 0.61 nM) and viability was assessed using Cell Titer-Glo assay (Promega) after 72 hours. Data were plotted as percent viability relative to vehicle-treated cells. Dose-responses curves were generated and used to calculate IC50 values.

BAF3 FL KIT EX11DEL = target: T2, BAF3 FL KIT EX11DEL (Homo sapiens, UniProt P10721, cells depend on it, form not given); assay: as above; assay type: cell-based; details: viability after 72 hours
T2 construct: "BAF3 FL KIT EX11DEL"
Description: as §1, §2

[2] = target: T3, BAF3 FL KIT EX11DEL/V654A (Homo sapiens, UniProt P10721, V654A, cells depend on it, form not given); assay: as above; assay type: cell-based; details: viability after 72 hours
T3 construct: "BAF3 FL KIT EX11DEL/ V654A"
Description: as §1, §2

[3] = target: T4, BAF3 FL KIT EX11DEL/D816H (Homo sapiens, UniProt P10721, D816H, cells depend on it, form not given); assay: as above; assay type: cell-based; details: viability after 72 hours
T4 construct: "BAF3 FL KIT EX11DEL/ D816H"
Description: as §1, §2

[4] = test system: gastrointestinal stromal tumors (GIST); details: third line therapy; cited from earlier work

T4 sequence (P10721 with tags, fused parts or gaps DEL557-558/D816H, form open): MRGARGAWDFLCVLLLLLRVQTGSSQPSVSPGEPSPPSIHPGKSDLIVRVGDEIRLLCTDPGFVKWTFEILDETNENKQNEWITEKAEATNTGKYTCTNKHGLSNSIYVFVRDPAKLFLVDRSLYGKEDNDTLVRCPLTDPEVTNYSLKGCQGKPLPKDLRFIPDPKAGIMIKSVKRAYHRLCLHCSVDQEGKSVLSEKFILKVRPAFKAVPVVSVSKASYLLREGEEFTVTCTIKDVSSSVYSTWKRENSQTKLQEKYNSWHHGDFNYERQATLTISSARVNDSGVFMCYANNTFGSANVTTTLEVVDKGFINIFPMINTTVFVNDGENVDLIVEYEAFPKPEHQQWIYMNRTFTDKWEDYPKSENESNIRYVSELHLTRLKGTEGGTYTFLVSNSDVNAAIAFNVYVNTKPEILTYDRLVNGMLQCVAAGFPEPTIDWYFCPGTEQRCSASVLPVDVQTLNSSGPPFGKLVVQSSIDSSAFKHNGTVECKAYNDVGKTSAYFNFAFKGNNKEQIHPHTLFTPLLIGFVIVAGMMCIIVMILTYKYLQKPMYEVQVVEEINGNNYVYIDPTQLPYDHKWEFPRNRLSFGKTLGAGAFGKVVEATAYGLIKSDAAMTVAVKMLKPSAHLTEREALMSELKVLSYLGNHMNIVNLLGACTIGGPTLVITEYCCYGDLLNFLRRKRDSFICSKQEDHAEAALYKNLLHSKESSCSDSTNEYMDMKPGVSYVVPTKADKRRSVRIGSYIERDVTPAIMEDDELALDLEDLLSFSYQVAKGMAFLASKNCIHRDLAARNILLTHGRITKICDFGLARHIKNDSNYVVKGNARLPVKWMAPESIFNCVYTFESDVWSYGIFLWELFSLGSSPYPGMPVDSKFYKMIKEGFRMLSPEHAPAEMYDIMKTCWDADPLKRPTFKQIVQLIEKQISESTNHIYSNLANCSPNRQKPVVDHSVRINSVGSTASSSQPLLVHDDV
T3 sequence (P10721 with tags, fused parts or gaps DEL557-558/V654A, form open): as the sequence (P10721 with tags, fused parts or gaps DEL557-558/D816H, form open) above, with V652A, H814D counted along it
T2 sequence (P10721 with tags, fused parts or gaps DEL557-558): as the sequence (P10721 with tags, fused parts or gaps DEL557-558/D816H, form open) above, with H814D counted along it
T1 sequence (P10721 with tags, fused parts or gaps DEL557-558/T670I, form open): as the sequence (P10721 with tags, fused parts or gaps DEL557-558/D816H, form open) above, with T668I, H814D counted along it

Structure (SMILES): Cc1ccc(C(=O)Nc2cc(C(F)(F)F)ccn2)cc1C#Cc1ccc2c(c1)ncn2-c1cn(C)nn1 [Compound I-24, 4-methyl-3-((1-(1-methyl-1H-1,2,3-triazol-4-yl)-1H-benzo[d]imidazol-5-yl)ethynyl)-N-(4-(trifluoromethyl)pyridin-2-yl)benzamide]
- GI50 [1]: < 10 nM
- GI50 (BAF3 FL KIT EX11DEL): < 10 nM
- GI50 [2]: 10 to 50 nM
- GI50 [3]: 10 to 50 nM

Structure (SMILES): Cc1ccc(C(=O)Nc2cc(C(F)(F)F)ccn2)cc1C#Cc1ccc2c(c1)ncn2-c1ccccc1 [Compound I-21, 4-methyl-3-((1-phenyl-1H-benzo[d]imidazol-5-yl)ethynyl)-N-(4-(trifluoromethyl)pyridin-2-yl)benzamide]
- GI50 [1]: 100 to 10000 nM
- GI50 (BAF3 FL KIT EX11DEL): 100 to 10000 nM
- GI50 [2]: 100 to 10000 nM
- GI50 [3]: 100 to 10000 nM

Structure (SMILES): CNC(=O)c1cc(Oc2ccc(NC(=O)Nc3ccc(Cl)c(C(F)(F)F)c3)c(F)c2)ccn1 [Regorafenib]
- ORR [4]: 4.5%
- median PFS [4]: 4.8 months

Structure (SMILES): CCN(CC)CCn1cc(-n2cnc3cc(C#Cc4cc(NC(=O)c5cc(C(F)(F)F)ccn5)ccc4C)ccc32)cn1 [Compound I-42, N-(3-((1-(1-(2-(diethylamino)ethyl)-1H-pyrazol-4-yl)-1H-benzo[d]imidazol-5-yl)ethynyl)-4-methylphenyl)-4-(trifluoromethyl)picolinamide]
- GI50 [1]: 10 to 50 nM
- GI50 (BAF3 FL KIT EX11DEL): 10 to 50 nM
- GI50 [2]: 50 to 100 nM
- GI50 [3]: 100 to 10000 nM

Structure (SMILES): Cc1ccc(C(=O)Nc2cc(C(F)(F)F)ccn2)cc1C#Cc1ccc2c(c1)ncn2C1CCN(C)CC1 [Compound I-20, 4-methyl-3-((1-(1-methylpiperidin-4-yl)-1H-benzo[d]imidazol-5-yl)ethynyl)-N-(4-(trifluoromethyl)pyridin-2-yl)benzamide]
- GI50 [1]: 100 to 10000 nM
- GI50 (BAF3 FL KIT EX11DEL): 10 to 50 nM
- GI50 [2]: 100 to 10000 nM
- GI50 [3]: 100 to 10000 nM

Structure (SMILES): Cc1ccc(NC(=O)c2ccc(CN3CCN(C)CC3)c(C(F)(F)F)c2)cc1C#Cc1ccc2c(c1)ncn2C [Compound I-18, N-(4-methyl-3-((1-methyl-1H-benzo[d]imidazol-5-yl)ethynyl)phenyl)-4-((4-methylpiperazin-1-yl)methyl)-3-(trifluoromethyl)benzamide]
- GI50 [1]: 100 to 10000 nM
- GI50 (BAF3 FL KIT EX11DEL): 100 to 10000 nM
- GI50 [2]: 100 to 10000 nM
- GI50 [3]: 100 to 10000 nM

Structure (SMILES): Cc1ccc(NC(=O)c2cc(C(F)(F)F)ccn2)cc1C#Cc1ccc2c(c1)ncn2-c1cn[nH]c1 [Compound I-43, N-(3-((1-(1H-pyrazol-4-yl)-1H-benzo[d]imidazol-5-yl)ethynyl)-4-methylphenyl)-4-(trifluoromethyl)picolinamide]
- GI50 [1]: 50 to 100 nM
- GI50 (BAF3 FL KIT EX11DEL): < 10 nM
- GI50 [2]: 100 to 10000 nM
- GI50 [3]: 50 to 100 nM

Structure (SMILES): Cn1cc(-n2cnc3cc(C#Cc4cccc(C(=O)Nc5cc(C(F)(F)F)ccn5)c4)ccc32)cn1 [Compound I-50, 3-((1-(1-methyl-1H-pyrazol-4-yl)-1H-benzo[d]imidazol-5-yl)ethynyl)-N-(4-(trifluoromethyl)pyridin-2-yl)benzamide]
- GI50 [1]: < 10 nM
- GI50 (BAF3 FL KIT EX11DEL): < 10 nM
- GI50 [2]: 50 to 100 nM
- GI50 [3]: 100 to 10000 nM

— patent publication US11117883B2 (Ariad Pharmaceuticals, Inc., priority 2016, dated 2021)
